From US9974825B2, “Peptides Des-[Asp1]-[Ala1], angiotensin-(1-7) agonist and pharmaceutical compositions for the treatment of diseases” (UNIVERSIDADE FEDERAL DE MINAS GERAIS, priority 2008, dated 2018)

Columns and labels:
Mas receptor = settings: Santos et al., PNAS 2003; cited from earlier work
[1] = test system: aorta rings of Mas−/− mice; experiment: Vasorelaxation in precontracted aorta rings of mice with genetic deletion of the Mas receptor (Mas-/-); format: cell-based, mice (C57/BI-6 and FVB/N); settings: both lineages C57/BI-6 and FVB/N, precontracted with fenilefrine 0.1 μM
Method: This example describes the vasodilating effect of Ala^1-Ang-(1-7), independently of the Mas receptor, on aorta rings of mice with genetic deletion of the Mas receptor (Mas−/−) and wild-type mice (Mas+/+) from two different lineages, C57/BI-6 and FVB/N.
(§1) The original rings of the descending thoracic aorta (2 mm), free from adipose tissue and connective tissue, were incubated in gasified solution (95% O2 and 5% CO2) of Krebs-Henseleit (mmol/L): NaCl 110.8, KCl 5.9, NaHCO3 25.0, MgSO4 1.07, CaCl2 2.49, NaH2PO4 2.33 and glucose 11.51, under a temperature of 37° C. and a 0.5 g tension, being equilibrated for 1 hour. The functional presence of endothelium was tested by its relaxing capacity produced by acetylcholine [ACh] (10 μM) on vessels precontracted with fenilefrine (0.3 μM). Only the vessels showing relaxation above 70% of extended contraction produced by fenilefrine were taken into account. […]
The aorta rings of mice Mas−/− and Mas+/+ from both lineages (C57/BI-6 and FVB/N) were precontracted to achieve the same tension level (approximately a 1.0 g tension) at a submaximum concentration of fenilefrine (0.1 μM). […] The vasodilating effects of Ala^1-Ang-(1-7) and Ang-(1-7) were expressed as a percentage of relaxation relative to the maximum contraction induced by fenilefrine. […]

[2] = test system: aorta rings of AT2−/− mice; experiment: Vasorelaxation in precontracted aorta rings of AT2-/- mice; format: cell-based; settings: precontracted with fenilefrine 0.1 μM
Method: This example describes the vasodilating effect of Ala^1-Ang-(1-7) and Ang-(1-7)—which is independent of the AT2 receptor—on the aorta of mice with genetic deletion of AT2 (AT2−/−) receptor.
as §1, with “account. Data on mechanical activity were isometrically obtained by using an amplified strength transducer (Model TMB-4; World Precision Instruments, Inc. Sarasota, Fla., USA) and converted to digital signal (AD16JR; World Precision Instruments, Inc.).” for “account.”
The aorta rings of AT2−/− mice were precontracted (approx. 1.0 g of tension) with a felinefrine submaximum concentration (0.1 μM). […] The vasodilating effects of Ala^1-Ang-(1-7) and Ang-(1-7) were expressed as a relaxation percentage relative to the maximum contraction induced by fenilefrine. […]

[3] = test system: aorta rings in absence of functional endothelium; experiment: Vasorelaxation in aorta rings without functional endothelium; format: cell-based, mice (C57/BI-6 and FVB/N); settings: vessels not presenting functional endothelium (Mas+/+ and Mas−/−, C57/BI-6 and FVB/N)
Method: This example describes the endothelium-dependence of the Ala^1-Ang-(1-7) vasorelaxing activity.
as §1, with “μM). In accordance with experimental protocols for its absence, the endothelium was removed with a slight friction on the vessel internal surface.” for “μM).”, “relaxation by acetylcholine” for “relaxation”
The Ala^1-Ang-(1-7) vasorelaxing activity was measured in vessels (Mas+/+ and Mas−/−, of lineages C57/BI-6 and FVB/N) in the presence or absence of precontracted functional endothelium (with approximately a 1.0 g tension) and a submaximum concentration of fenilefrine (0.1 μM). […] The vasodilating effects of Ala^1-Ang-(1-7) and Ang-(1-7) were expressed as a relaxation percentage relative to the maximum contraction induced by fenilefrine. […]

| Substance | Kd (Mas receptor) [nM] | vasodilating response [1] | vasodilating effect [2] | vasodilating effect [3] |
| --- | --- | --- | --- | --- |
| Asp^1-Arg^2-Val^3-Tyr^4-Ile^5-His^6-Pro^7 [Ang-(1-7)] | 0.33 | absence | preserved |  |
| Ala^1-Arg^2-Val^3-Tyr^4-Ile^5-His^6-Pro^7 [Ala^1-Ang-(1-7)] |  | totally preserved | preserved | abolished |
